Data reported in BindingDB's records for doi:10.1021/bi00139a026 (University of California San Francisco, 1992).

Legend:
[1] = molecular target: T1, Amine oxidase [flavin-containing] A (Homo sapiens, UniProt P21397); assay: Inhibiton Assay
T1 sequence (P21397 whole entry): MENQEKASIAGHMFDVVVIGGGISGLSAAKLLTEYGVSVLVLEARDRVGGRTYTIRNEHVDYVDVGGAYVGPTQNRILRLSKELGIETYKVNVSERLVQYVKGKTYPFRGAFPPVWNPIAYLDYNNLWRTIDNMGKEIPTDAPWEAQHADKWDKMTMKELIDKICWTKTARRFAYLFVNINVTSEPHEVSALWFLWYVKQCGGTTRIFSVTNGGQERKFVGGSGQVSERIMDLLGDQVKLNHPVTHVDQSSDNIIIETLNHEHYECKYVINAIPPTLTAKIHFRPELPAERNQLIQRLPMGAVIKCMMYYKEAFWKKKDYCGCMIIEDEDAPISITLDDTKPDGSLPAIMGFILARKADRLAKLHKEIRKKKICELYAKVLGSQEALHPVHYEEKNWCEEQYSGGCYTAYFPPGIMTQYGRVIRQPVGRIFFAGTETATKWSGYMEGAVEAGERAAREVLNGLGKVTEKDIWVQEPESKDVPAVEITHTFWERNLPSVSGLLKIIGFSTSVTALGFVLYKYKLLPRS
Text: (§1) Inhibition assay using MAO-A and MAO-B.

[2] = molecular target: T2, Amine oxidase [flavin-containing] B (Homo sapiens, UniProt P27338); assay: Inhibiton Assay
T2 sequence (P27338 whole entry): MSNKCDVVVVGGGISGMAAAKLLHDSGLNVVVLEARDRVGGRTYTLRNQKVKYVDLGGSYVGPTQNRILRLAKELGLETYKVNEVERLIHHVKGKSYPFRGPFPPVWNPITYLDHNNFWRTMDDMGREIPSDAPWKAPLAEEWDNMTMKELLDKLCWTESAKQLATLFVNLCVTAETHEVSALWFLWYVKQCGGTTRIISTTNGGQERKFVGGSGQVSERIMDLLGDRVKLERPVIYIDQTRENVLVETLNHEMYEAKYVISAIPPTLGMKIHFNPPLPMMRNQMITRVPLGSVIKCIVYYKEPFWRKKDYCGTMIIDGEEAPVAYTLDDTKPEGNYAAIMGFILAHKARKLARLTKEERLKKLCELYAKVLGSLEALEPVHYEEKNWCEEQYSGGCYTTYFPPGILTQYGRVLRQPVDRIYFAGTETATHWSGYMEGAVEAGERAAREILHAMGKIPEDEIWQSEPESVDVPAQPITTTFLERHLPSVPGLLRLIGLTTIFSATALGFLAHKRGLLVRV
Text: as §1

`C[n+]1ccc(Cc2ccccc2F)cc1` [MPP analogue, 18] showed a Ki [1] of 29 µM and an IC50 [2] of 2000 µM.

With `C[n+]1ccc(CCc2ccccc2)cc1` [MPP analogue, 17] the Ki [1] was 37 µM and the IC50 [2] was 12 µM.

For `C[n+]1ccc(Cc2cccc3ccccc23)cc1` [MPP analogue, 19], the Ki [1] was 5.5 µM and the IC50 [2] was 850 µM.
